In EP2864333B1, “ETODOLAC DERIVATIVES AS HCV NS5B POLYMERASE INHIBITORS” (priority 2012, dated 2014) one finds IC50 and inhibition data, which are given here for eight compounds.

The target in assay [1] is T1, HCV NS5B RdRp (NS5BCdelta21) (Hepatitis C virus genotype 1b, UniProt P26663).
T1 construct: 500 ng of NS5BCdelta21; made in house; host or cells: Escherichia coli DH5alpha
Put plainly: HCV NS5B RNA-dependent RNA polymerase (RdRp) assay, poly rA/U12 primer-dependent elongation. The assay is classed as biochemical. To be noted: for inhibition at 100 µM: read-out: Anti-NS5B Activity (% Inhibition, 100 µM); for inhibition at 200 µM: read-out: Anti-NS5B Activity (% Inhibition, 200 µM). Here is the method: The RdRp activity of NS5B was evaluated by the standard primer-dependent elongation reactions employing poly rA/U12 template-primers (TP). Reaction mixtures containing 20 mM Tris-HCl (pH 7.0), 100 mM NaCl, 100 mM Na-glutamate, 0.5 mM DTT, 0.01% BSA, 0.01% Tween-20, 5% glycerol, 20 U/ml of RNasin, 0.5 microM of poly rA/U12, 25 microM UTP, 2-5 microCi [alpha-32P]UTP, 500 ng of NS5BCdelta21 and 0.5 mM MnCl2 with or without inhibitors in a total volume of 25 microliters were incubated for 1 h at 30°C. Reactions were quenched by the addition of ice cold 5% (v/v) trichloroacetic acid (TCA) containing 0.5 mM pyrophosphate (PPi), the denatured polymeric RNA products were transferred to GF-B filters and the amount of radioactive UMP incorporated into RNA products was quantified on a liquid scintillation counter (Packard). The concentrations of the compounds inhibiting 50% of NS5B RdRp activity (IC50) were calculated from the inhibition curves as a function of inhibitor concentration. Nsp12 activity was similarly evaluated except that incubations were carried out at 25°C for optimal enzymatic activity.
The ability of the compounds to inhibit HCV NS5B RdRp activity was investigated in vitro by polyrA-U12 extension assay as described in experimental section by Kaushik-Basu N, et al.. The compounds SGK 224-230, 313 and SGK 238- 244, 315 were reconstituted in DMSO as 50 mM stocks, and serially diluted in DMSO to obtain working stocks.
Preliminary screening was carried out at 100 µM to identify a wider range of compounds. […] NS5B RdRp activity in the absence of the inhibitor was taken as 100 percent after subtraction of residual background activity. The concentration of DMSO in all reactions was kept constant at 5%. […] Curves were fitted to data points using nonlinear regression analysis and IC50 values were interpolated from the resulting curves using GraphPad Prism 3.03 software.

Assay [2] addresses T1, HCV NS5B RdRp (NS5BCdelta21). The assay is described as above. The assay is classed as biochemical. As to conditions: read-out: Anti-HCV Activity (%Inhibition, 100 µM).
The mark [3] stands for this setting: dose-response curves, 8-10 concentrations, duplicate, two independent experiments, read-out: IC50.

Structures are written as SMILES. Like-named read-outs stand apart in the source and are kept apart here.

T1 sequence (P26663 2420-2989): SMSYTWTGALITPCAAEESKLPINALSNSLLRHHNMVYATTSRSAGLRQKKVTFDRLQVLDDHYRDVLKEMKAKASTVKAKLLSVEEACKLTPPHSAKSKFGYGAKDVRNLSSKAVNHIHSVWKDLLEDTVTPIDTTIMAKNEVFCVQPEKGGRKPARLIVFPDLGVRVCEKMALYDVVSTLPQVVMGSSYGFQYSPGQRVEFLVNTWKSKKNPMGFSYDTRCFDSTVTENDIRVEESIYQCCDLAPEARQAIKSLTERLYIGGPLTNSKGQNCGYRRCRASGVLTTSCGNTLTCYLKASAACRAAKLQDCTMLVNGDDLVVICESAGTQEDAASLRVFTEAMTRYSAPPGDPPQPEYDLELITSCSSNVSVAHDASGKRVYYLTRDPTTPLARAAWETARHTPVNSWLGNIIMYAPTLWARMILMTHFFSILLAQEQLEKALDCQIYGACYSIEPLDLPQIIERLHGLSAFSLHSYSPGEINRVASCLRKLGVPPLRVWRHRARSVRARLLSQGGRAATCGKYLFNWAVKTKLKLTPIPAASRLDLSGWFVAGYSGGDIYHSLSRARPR

For the compound `CCc1cccc2c3c([nH]c12)C(CC)(CC(=O)NN=Cc1cccc(F)c1)OCC3` (stereo not drawn) [SGK 202, 2-(1,8-Diethyl-1,3,4,9-tetrahydropyrano[3,4-b]indole-1-yl) acetic acid [(3-fluorophenyl)methylene] hydrazide], in assay [1], half-maximal inhibition (IC50) required 35.9 ± 1.4 µM, the inhibition at 100 µM came out at 61.6 ± 0.4% and the inhibition at 200 µM stood at 66.4 ± 5.8%.

For the compound `COc1cc(O)c2c(c1)oc(=O)c1c3cc(O)c(O)cc3oc21` [Wedelolacton, reference compound], in assay [1] (setting [3]), the IC50 amounted to 36 µM.

As to `CCc1cccc2c3c([nH]c12)C(CC)(CC(=O)O)OCC3` (racemic) [Etodolac, (R,S)-2-[1,8-diethyl-1,3,4-tetrahydrapyrano[3,4-b]indole-1-yl]acetic acid], the inhibition at 100 µM in assay [2] came out at 7.4%.

Consider `CCc1cccc2c3c([nH]c12)C(CC)(CC(=O)OC)OCC3` (racemic) [SGK 196, methyl (1,8-diethyl-1,3,4,9-tetrahydropirano[3,4-b]indole-1-yl) acetate], for which, in assay [1], the inhibition at 100 µM was found to be 6.4 ± 0.9% and the inhibition at 200 µM was 13.3 ± 1.2%.

On to `CCc1cccc2c3c([nH]c12)C(CC)(CC(=O)NN)OCC3` (stereo not drawn) [SGK 197, 2-(1,8-diethyl-1,3,4,9-tetrahydropyrano[3,4-b]indole-1-yl)acetohydrazide], for which, in assay [1], the inhibition at 100 µM came out at 11.4 ± 0.2% and the inhibition at 200 µM amounted to 19 ± 4.4%.

For the compound `CCc1cccc2c3c([nH]c12)C(CC)(Cc1n[nH]c(=S)n1C)OCC3` (stereo not drawn) [SGK 238, 5-[(1,8-diethyl-1,3,4,9-tetrahydropyrano[3,4-b]indol-1-yl)methyl]-4-methyl-2,4-dihydro-3H-1,2,4-triazole-3-thione], in assay [1], the half-maximal inhibitory concentration (IC50) stood at 14.8 µM, the inhibition at 100 µM was 78.9 ± 0.7% and the inhibition at 200 µM came out at 86 ± 0.6%.

With `CCc1cccc2c3c([nH]c12)C(CC)(CC(=O)NNC(=S)NC)OCC3` (stereo not drawn) [SGK 224, 1-[2-(1,8-diethyl-1,3,4,9-tetrahydropyrano[3,4-b]indol-1-yl)acetyl]-4-methyl thiosemicarbazide], in assay [1] (setting [3]), the IC50 is 18.7 µM. Also, in assay [1], the inhibition at 100 µM came to 76.2 ± 0.5% and the inhibition at 200 µM is 77.5 ± 1.3%.

On to `C=CCNC(=S)NNC(=O)CC1(CC)OCCc2c1[nH]c1c(CC)cccc21` (stereo not drawn) [SGK 229, 1-[2-(1,8-Diethyl-1,3,4,9-tetrahydropyrano[3,4-b]indole-1-yl)acetyl]-4-allyl thiosemicarbazide], for which the IC50 in assay [1] (setting [3]) stood at 16.8 ± 1.2 µM. Also, in assay [1], the inhibition at 100 µM is 78.6 ± 2.1% and the inhibition at 200 µM was 81.6 ± 0.8%.

In general, IC50 refers to the midpoint of a concentration-inhibition curve. As usually defined, the inhibition is how much of the control response was suppressed.
